Measured values published in patent US12180146B2, “Antihypertensive polyol compound and derivative thereof” (TAO PHARMACEUTICAL (SUZHOU) CO., LTD, priority 2020, dated 2024).

Test system: spontaneously hypertensive rats (SHR)
Assay: Antihypertensive activity test: blood pressure and heart rate of spontaneously hypertensive rats (SHR)
Assay type: in vivo, rat
Details: 200 mg/kg
Experimental: Tested Drugs: Compounds of the Invention. The dosage of all compound was uniformly set to 200 mg/kg.
In the test, changes in the blood pressure before and after the administration were detected, and compared with the basic value, a reduction of SBP ≥20 mmHg after administration was judged as effective antihypertensive effects; and at the same time, changes in the heart rate before and after the administration were detected.
Heart rate was expressed as mean±standard deviation (x±s). The changes of heart rate before and after the administration were compared by using Two-sample equal variance paired t test, and P<0.05 was regarded as the standard of statistically significant difference.

| SMILES | SBP Difference before and after administration, 1 h [mmHg] | SHR blood pressure (SBP), time after administration 1 h (n = 8) [mmHg] | SBP Difference before and after administration, 2 h [mmHg] | SHR blood pressure (SBP), time after administration 2 h (n = 8) [mmHg] | SBP Difference before and after administration, 3 h [mmHg] | SHR blood pressure (SBP), time after administration 3 h (n = 8) [mmHg] | SBP Difference before and after administration, 4 h [mmHg] | SHR blood pressure (SBP), time after administration 4 h (n = 8) [mmHg] | SBP Difference before and after administration, 5 h [mmHg] | SHR blood pressure (SBP), time after administration 5 h (n = 8) [mmHg] | SBP Difference before and after administration, 6 h [mmHg] | SHR blood pressure (SBP), time after administration 6 h (n = 8) [mmHg] | SBP Difference before and after administration, 0 h (0 h) [mmHg] | SHR blood pressure (SBP), time after administration 0 h (0 h, n = 8) [mmHg] |
| --- | --- | --- | --- | --- | --- | --- | --- | --- | --- | --- | --- | --- | --- | --- |
| COc1ccc([C@@H](O)[C@H](C)O)cc1Cl [Compound 14] | 3 | 182 ± 11.6 | 7 | 178 ± 10.8 | 8 | 177 ± 10.9 | 5 | 18 ± 15.80 | 1 | 184 ± 16.0 | −1 | 186 ± 17.7 | – | – |
| OCC(O)c1cccc(Br)c1 (stereo not drawn) [Compound 6] | 5 | 184 ± 10.9 | 9 | 180 ± 12.4 | 9 | 180 ± 7.80 | 6 | 183 ± 6.56 | 7 | 182 ± 8.29 | 1 | 188 ± 13.2 | – | – |
| OCC(O)C(OC1OC(CO)C(O)C(O)C1O)c1ccc(O)cc1 (stereo not drawn) [Compound 18] | 16 | 176 ± 6.39 | 18 | 174 ± 4.50 | 21 | 171 ± 9.15 | 19 | 173 ± 13.7 | 18 | 174 ± 15.9 | 14 | 178 ± 8.78 | – | – |
| CCc1cccc([C@H](O)CO)c1 [Compound 1-2] | 10 | 176 ± 6.39 | 22 | 164 ± 4.50 | 25 | 161 ± 9.15 | 23 | 163 ± 13.7 | 12 | 174 ± 15.9 | 8 | 178 ± 8.78 | – | – |
| COc1ccc(C(O)C(=O)O)cc1 (stereo not drawn) [Compound 17] | 9 | 186 ± 12.4 | 7 | 188 ± 12.0 | 14 | 181 ± 13.1 | 9 | 186 ± 11.4 | 15 | 180 ± 11.9 | 9 | 186 ± 10.1 | 0 | – |
| CC(=O)c1ccc(C(O)CO)cc1 (stereo not drawn) [Compound 10] | 6 | 186 ± 9.54 | 10 | 182 ± 7.36 | 13 | 179 ± 4.07 | 9 | 183 ± 7.65 | 7 | 185 ± 5.64 | 2 | 190 ± 6.54 | – | – |
| COP(=O)(OC)OCC(O)c1ccccc1 (stereo not drawn) [Compound 20] | 6 | 186 ± 9.55 | 10 | 182 ± 7.36 | 3 | 189 ± 4.07 | 9 | 183 ± 7.15 | 7 | 185 ± 5.61 | 2 | 190 ± 6.66 | – | 192 ± 7.98 |
| CCc1cccc(C(O)COC(=O)[C@@H](C)N)c1 (stereo partly drawn) [Compound 22] | 11 | 187 ± 6.39 | 14 | 184 ± 4.69 | 26 | 171 ± 12.14 | 25 | 173 ± 13.7 | 24 | 174 ± 15.9 | 20 | 178 ± 8.78 | – | – |
| CCc1cccc([C@@H](O)CO)c1 [Compound 1-1] | 14 | 176 ± 12.4 | 22 | 168 ± 12.0 | 29 | 161 ± 13.1 | 24 | 166 ± 11.4 | 20 | 170 ± 11.9 | 14 | 186 ± 10.1 | 0 | – |
| Cc1cccc(C(O)CO)c1 (stereo not drawn) [Compound 3] | 18 | 180 ± 11.6 | 10 | 178 ± 10.9 | 11 | 177 ± 13.9 | 8 | 180 ± 15.80 | 2 | 186 ± 16.0 | 2 | 186 ± 17.7 | – | – |
| [2H]OCC(O[2H])c1cccc(CC)c1 (stereo not drawn) [Compound 1-3] | 18 | 168 ± 6.39 | 21 | 165 ± 4.50 | 23 | 163 ± 9.15 | 23 | 163 ± 13.7 | 22 | 164 ± 15.9 | 18 | 168 ± 8.78 | – | – |
